Laboratory results taken from the supplement of paper PMC10307832.

Key:
Experiment in all cases: relative viability (nuclei count vs DMSO), 5 days (fraction); higher = more cells survive
[1] = compound: CC1(C)CNc2cc(NC(=O)c3cccnc3NCc3ccncc3)ccc21 [Motesanib] + COc1cc2c(Oc3ccc(NC(=O)C4(C(=O)Nc5ccc(F)cc5)CC4)cc3F)ccnc2cc1OCCCN1CCOCC1 [Foretinib] (partner 0.25 µM)
Method in brief: (§1)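 The day after seeding in 1536-well plates, lung cancer cell lines were treated by pin tool with a single drug, or with a fixed anchor-drug dose together with five library-drug doses (not always all listed) in √10 steps. After 5 days, a combined fix-and-stain solution (final 0.05% Triton X-100, 1% formaldehyde, 1 ug/ml Hoechst) was added. Nuclei counted on 4× images gave relative viability as treated counts over vehicle counts, reported as the median of duplicate plates.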

[2] = compound: CC1(C)CNc2cc(NC(=O)c3cccnc3NCc3ccncc3)ccc21 [Motesanib] + C[C@]1(O)C[C@@H](c2nc(-c3ccc4ccc(-c5ccccc5)nc4c3)c3c(N)nccn32)C1 [Linsitinib] (partner 1 µM)
Method in brief: as §1

[3] = compound: C[C@@]1(C(=O)Nc2ccc(F)nc2)CCCN1c1nc(Nc2cc(C3CC3)n[nH]2)c2cccn2n1 + CS(=O)(=O)N1CCN(Cc2cc3nc(-c4cccc5[nH]ncc45)nc(N4CCOCC4)c3s2)CC1 [Pictilisib] (partner 1 µM)
Method in brief: as §1

[4] = compound: CC1(C)CNc2cc(NC(=O)c3cccnc3NCc3ccncc3)ccc21 [Motesanib] + C[C@@H](Oc1cc(-c2cnn(C3CCNCC3)c2)cnc1N)c1c(Cl)ccc(F)c1Cl [Crizotinib] (partner 1 µM)
Method in brief: as §1

Cell Line | relative viability ([1]; first compound 0.01 µM) | relative viability ([1]; first compound 0.03162 µM) | relative viability ([1]; first compound 0.1 µM) | relative viability ([1]; first compound 0.3162 µM) | relative viability ([1]; first compound 1 µM) | relative viability ([2]; first compound 0.01 µM) | relative viability ([2]; first compound 0.03162 µM) | relative viability ([2]; first compound 0.1 µM) | relative viability ([2]; first compound 0.3162 µM) | relative viability ([2]; first compound 1 µM) | relative viability ([3]; first compound 0.04 µM) | relative viability ([3]; first compound 0.1265 µM) | relative viability ([3]; first compound 0.4 µM) | relative viability ([3]; first compound 1.265 µM) | relative viability ([4]; first compound 0.01 µM) | relative viability ([4]; first compound 0.03162 µM) | relative viability ([4]; first compound 0.1 µM) | relative viability ([4]; first compound 0.3162 µM) | relative viability ([4]; first compound 1 µM)
NCI-H2342 | 1.03 | 1.09 | 1.12 | 1.1 | 0.971 |  |  |  |  |  |  |  |  |  |  |  |  |  | 
HCC-15 | 0.984 | 0.838 | 1.01 | 1.17 | 1.11 | 0.928 | 0.801 | 0.922 | 0.992 | 0.926 | 0.715 | 0.573 | 0.747 | 0.745 | 0.778 | 0.782 | 0.799 | 0.835 | 0.838
A-427 | 1.04 | 1.05 | 1.06 | 1.16 | 1.23 | 1.06 | 1.11 | 1.07 | 1.22 | 1.22 | 0.79 | 0.679 | 0.739 | 0.705 | 0.933 | 0.892 | 0.983 | 0.888 | 1.04
NCI-H2228 | 0.995 | 0.937 | 0.902 | 1.02 | 0.796 | 0.685 | 0.544 | 0.689 | 0.5 | 0.509 | 0.216 | 0.175 | 0.198 | 0.246 | 0.386 | 0.424 | 0.619 | 0.431 | 0.571
NCI-H1734 | 0.932 | 0.883 |  | 0.879 | 0.968 | 0.843 | 0.951 | 0.897 | 0.976 | 1.01 | 0.381 | 0.301 | 0.321 | 0.296 | 0.685 | 0.645 | 0.654 | 0.68 | 0.673
PC-14 | 0.922 | 0.997 | 1 | 1.01 | 1.06 | 1.01 | 0.97 | 1.02 | 0.997 | 0.97 | 0.505 | 0.0522 | 0.37 | 0.485 | 0.944 | 0.965 | 0.898 | 0.883 | 0.969
NCI-H1915 | 1.07 | 1.06 | 1.09 | 1.14 | 1.06 | 1.09 | 1.19 | 1.11 | 1.16 | 1.08 | 0.948 | 1.04 | 0.894 | 0.863 | 0.897 | 0.851 | 0.875 | 0.927 | 0.947
NCI-H1666 | 0.979 | 0.956 | 0.947 | 1.03 | 1.01 | 0.966 | 0.83 | 0.786 | 0.788 | 0.753 | 0.364 | 0.378 | 0.447 | 0.38 | 1.02 | 1.06 | 0.949 | 0.958 | 1.03
HCC-366 | 0.955 | 0.932 | 0.952 | 0.883 | 1.02 | 0.639 | 0.589 | 0.656 | 0.666 | 0.79 | 0.105 | 0.104 | 0.101 | 0.12 | 0.575 | 0.487 | 0.605 | 0.556 | 0.596
SK-MES-1 | 0.949 | 0.963 | 0.982 | 0.945 | 0.86 | 1.06 | 1.09 | 1.1 | 1.08 | 1.08 | 0.335 | 0.268 | 0.286 | 0.306 | 0.983 | 0.986 | 1.01 | 1.05 | 0.977
SW 1573 | 0.772 | 0.905 | 0.93 | 0.936 | 1.08 | 0.815 | 0.825 | 0.65 | 0.773 | 0.949 | 0.438 | 0.251 | 0.377 | 0.455 | 0.686 | 0.887 | 0.913 | 0.746 | 0.973
NCI-H661 | 0.998 | 1.1 | 0.991 | 1.13 | 0.9 | 0.518 | 0.528 | 0.559 | 0.593 | 0.495 | 0.432 | 0.355 | 0.408 |  |  | 0.945 | 1.09 | 0.978 | 1.1
PC-3 [JPC-3] | 1.01 | 1.06 | 1.06 | 1.03 | 1.01 | 1.05 | 0.969 | 0.946 | 1.04 | 0.944 | 0.784 | 0.595 | 0.708 | 0.644 | 0.997 | 1.03 | 1.02 | 1.01 | 1.01
NCI-H1623 | 0.869 | 0.889 | 0.763 | 0.871 | 0.873 |  |  |  |  |  |  |  |  |  |  |  |  |  | 
Calu-6 | 0.953 | 0.921 | 0.851 | 0.884 | 0.826 | 0.971 | 0.932 | 0.961 | 0.955 | 1.08 | 0.965 | 0.833 | 0.695 | 0.425 | 0.794 | 0.744 | 0.78 | 0.758 | 0.783
LC-2-ad | 0.875 | 0.988 | 0.893 | 0.984 | 1.02 | 0.828 | 0.834 | 0.858 | 0.881 | 0.766 | 0.248 | 0.271 | 0.272 | 0.206 | 0.442 | 0.46 |  | 0.441 | 0.484
CAL-12T | 1.13 | 1.19 | 1.2 | 1.19 | 1.12 | 0.81 | 0.801 | 0.876 | 0.882 | 0.822 | 0.41 | 0.395 | 0.463 | 0.304 | 0.627 | 0.56 | 0.664 | 0.758 | 0.559
RERF-LC-KJ | 0.876 | 0.866 | 0.848 | 0.864 | 0.892 | 0.864 | 0.926 | 0.857 | 0.919 | 0.844 | 0.477 | 0.44 | 0.228 | 0.494 | 0.87 | 0.762 | 0.878 | 0.768 | 0.879
NCI-H1650 | 1.25 | 0.816 | 1.16 | 1.27 | 1.23 |  |  |  |  |  | 0.561 | 0.489 | 0.533 | 0.403 | 0.91 |  | 0.975 | 0.93 | 1.02
